This is an account of results in patent US11453674B2, “Heterocyclic compound, preparation method and use thereof in medicine” (SUZHOU SINOVENT PHARMACEUTICALS CO., LTD., priority 2019, dated 2022).

Structures are written as SMILES.

One assay concerns the target T1, OAT3 (Homo sapiens, UniProt Q8TCC7).
T1 construct: host or cells: HEK293/OAT3 (hygromycin B selection)
T1 sequence (Q8TCC7 1-542): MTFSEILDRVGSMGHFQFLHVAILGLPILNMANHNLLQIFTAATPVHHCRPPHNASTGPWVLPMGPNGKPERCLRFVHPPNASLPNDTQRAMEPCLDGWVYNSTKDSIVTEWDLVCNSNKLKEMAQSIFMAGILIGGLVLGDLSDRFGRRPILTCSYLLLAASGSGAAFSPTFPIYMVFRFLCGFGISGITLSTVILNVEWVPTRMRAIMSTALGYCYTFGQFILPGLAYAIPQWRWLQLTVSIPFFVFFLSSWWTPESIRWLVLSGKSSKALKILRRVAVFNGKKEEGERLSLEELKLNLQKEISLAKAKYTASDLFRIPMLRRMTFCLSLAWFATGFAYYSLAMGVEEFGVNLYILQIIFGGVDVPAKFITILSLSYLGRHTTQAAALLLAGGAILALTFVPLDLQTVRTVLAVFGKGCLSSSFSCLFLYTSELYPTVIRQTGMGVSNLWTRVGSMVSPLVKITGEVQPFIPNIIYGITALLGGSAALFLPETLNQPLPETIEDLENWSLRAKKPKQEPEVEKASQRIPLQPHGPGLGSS
The assay can be described thus: Inhibition of 6-carboxyfluorescein uptake in HEK293/OAT3 cells. The following applies: ratio of OAT3 IC50 to hURAT1 IC50 (selectivity). The class given is cell-based. The procedure: (§1) 1. Reagents and Consumables
(§2) 2. Culture Media and Solutions
(§3) Thaw medium: 90% DMEM+10% FBS+1× Pen/Strep, preserved at 4° C. for later use.
(§4) Culture medium: 90% DMEM+10% FBS+1× Pen/Strep+100 μg/mL Hygromycin B, preserved at 4° C. for later use.
(§5) 5× Matrigel: 1 vial of Matrigel was thawed overnight at 4° C., then diluted to 500 mL with cold DMEM. The resulting solution was preserved at 4° C. for later use after subpackaging.
(§6) Uptake assay buffer: 487.5 mL HBSS buffer was mixed with 12.5 mL 1M HEPES, with the final HEPES concentration being 25 mM. This was prepared right before the experiment.
(§7) 30 mM probenecid: 2 mg of the powder was dissolved in 233.62 μL of 100% DMSO. The resulting solution was preserved at −20° C. for later use after subpackaging.
(§8) The resulting solution was preserved at −20° C. for later use after subpackaging.
(§9) The resulting solution was preserved away from light at 4° C. for later use after subpackaging.
(§10) Envision multimode plate reader (with parameters as follows)
(§11) Emission wavelength: 590 nm
(§12) 4. Experimental Procedures
(§13) The cells were quickly taken out from a liquid nitrogen tank and shaken in a water bath at 37° C. until completely thawed. The cell suspension was quickly added to a pre-heated culture medium and centrifuged at 1000 rpm for 5 min. The supernatant was discarded. A fresh pre-heated culture medium was added for resuspension. The cell suspension was transferred into a 100 mm dish and incubated at 37° C. at 5% CO2.
(§14) Typically, the cells were passaged every 2-3 days in a ratio of 1:3 to 1:5.
(§15) 5× Matrigel was added to a 384-well cell plate at 5 μL/well for incubation in an incubator at 37° C. for 30 min, followed by digestion.
(§16) Cells were collected after digestion, counted, resuspended at 1×10^6 cells/mL using a culture medium, and added to a coated plate at 60 μL/well by using a Multidrop Combi to give a cell density of 6×10^4 cells/well, followed by incubating overnight at 37° C. at 5% CO2.
(§17) 3) Preparation of Uptake Assay Buffer
(§18) On the day of experiment, fresh buffer was prepared as needed.
(§19) 4) Preparation of Compounds (Using ECHO)
(§20) Working solutions of 11 concentrations were prepared for plotting a curve with stock solutions of 3 concentrations using PlateMap. The 3 concentrations were 30 mM, 0.3 mM, 0.003 mM, all formulated in DMSO.
(§21) 5) Preparation of a Mixed Solution of 6-Carboxyfluorescein (6 μM) and Compounds
(§22) According to amount used, 6-carboxyfluorescein (1 mM) was diluted with uptake assay buffer to give a diluted 6-carboxyfluorescein solution (6 μM). […] The mixture was preserved away from light for later use. The concentration of DMSO was 2% at this time.
(§23) The cells were incubated overnight before the culture medium was carefully removed. Then 80 μL of uptake assay buffer was added to each well at room temperature for washing the cells 3 times. After washing, 20 μL of uptake assay buffer was added to each well.
(§24) The mixed solution of 6-CF (6 μM) and compounds, prepared in step 5, was transferred to a cell plate at 20 μL/well with Bravo. The mixed solution was centrifuged at 400 rpm for 1 min, and incubated away from light at room temperature for 10 min. At this time, the concentration of 6-CF became 3 μM, the concentration of the compound became the final concentration, and the concentration of DMSO became 1%.
(§25) The cells were washed 3 times with pre-cooled uptake assay buffer at 80 μL/well, to remove unbound 6-CF.
(§26) The plate was read on the Envision. The data were recorded and processed to calculate IC50.
(§27) According to the fluorescence signals of HPE and ZPE on each cell plate, the inhibition rate (%) of the compound in each well on the cell plate was calculated.
(§28) The XLfit software was used to plot the curve for calculating the IC50 values of the compounds. The IC50 value of the positive compound was also one of the criteria for controlling the quality of each experiment.

Another assay concerns the target T2, OAT1 (Homo sapiens, UniProt Q4U2R8).
T2 construct: host or cells: HEK293/OAT1 (hygromycin B selection)
T2 sequence (Q4U2R8 1-563): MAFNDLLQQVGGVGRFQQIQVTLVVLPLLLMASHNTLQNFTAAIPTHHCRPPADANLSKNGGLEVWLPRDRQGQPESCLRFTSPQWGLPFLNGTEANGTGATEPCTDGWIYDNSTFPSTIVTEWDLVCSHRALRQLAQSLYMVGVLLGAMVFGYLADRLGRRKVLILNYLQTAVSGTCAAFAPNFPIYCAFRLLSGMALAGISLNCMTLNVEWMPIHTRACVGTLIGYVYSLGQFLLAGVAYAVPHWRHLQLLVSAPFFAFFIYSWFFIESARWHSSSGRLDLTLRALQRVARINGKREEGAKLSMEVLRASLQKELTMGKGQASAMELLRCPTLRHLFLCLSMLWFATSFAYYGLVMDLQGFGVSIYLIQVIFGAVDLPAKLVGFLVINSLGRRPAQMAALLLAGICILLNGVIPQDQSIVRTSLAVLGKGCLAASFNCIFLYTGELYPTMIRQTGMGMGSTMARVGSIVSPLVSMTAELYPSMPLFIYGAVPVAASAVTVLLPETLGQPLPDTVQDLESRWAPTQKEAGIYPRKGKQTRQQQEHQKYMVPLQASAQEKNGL
The assay can be described thus: Inhibition of 6-carboxyfluorescein uptake in HEK293/OAT1 cells. The class given is cell-based. As to conditions: ratio of OAT1 IC50 to hURAT1 IC50 (selectivity). The procedure:
as §1, §2, §3, §4, §5, §6, §7, §8, §9, §10, §11, §12, §13, §14, §15, §16, §17, §18, §19, §20, §21, §22, §23, §24, §25, §26, §27, §28

For the compound `CCc1nc2ncc(Br)cn2c1C(=O)c1cc(Br)c(O)c(Br)c1` [Example 3, (6-bromo-2-ethylimidazo[1,2-a]pyrimidin-3-yl)(3,5-dibromo-4-hydroxyphenyl)methanone], on OAT3, the “IC50, OAT3/IC50, hURAT1” value was determined as 8.9. Further, the “IC50, OAT1/IC50, hURAT1” value on OAT1 was 13.8.

`CCc1nc2ncc(F)cn2c1C(=O)c1cc(Br)c(O)c(Br)c1` [Example 4, (3,5-dibromo-4-hydroxyphenyl)(2-ethyl-6-fluoroimidazo[1,2-a]pyrimidin-3-yl)methanone]: the “IC50, OAT3/IC50, hURAT1” value at OAT3 came out at 36.5. The “IC50, OAT1/IC50, hURAT1” value at OAT1 was 55.0.

`CCc1nc2ncc(C(F)(F)F)cn2c1C(=O)c1cc(Br)c(O)c(Br)c1` [Example 5, (3,5-dibromo-4-hydroxyphenyl)(2-ethyl-6-(trifluoromethyl)imidazo[1,2-a]pyrimidin-3-yl)methanone]: the “IC50, OAT3/IC50, hURAT1” value on OAT3 was determined as 21.1. In addition, at OAT1, the “IC50, OAT1/IC50, hURAT1” value is 34.4.

For `CCc1nc2ncc(Cl)cn2c1C(=O)c1cc(Br)c(O)c(Br)c1` [Example 6, (6-chloro-2-ethylimidazo[1,2-a]pyrimidin-3-yl)(3,5-dibromo-4-hydroxyphenyl)methanone], the “IC50, OAT3/IC50, hURAT1” value at OAT3 worked out at 24.8. Besides, the “IC50, OAT1/IC50, hURAT1” value on OAT1 came out at 33.6.

As to `CCc1nc2cc(C(F)(F)F)ncn2c1C(=O)c1cc(Br)c(O)c(Br)c1` [Example 7, (3,5-dibromo-4-hydroxyphenyl)(2-ethyl-7-(trifluoromethyl)imidazo[1,2-c]pyrimidin-3-yl)methanone], on OAT3, the “IC50, OAT3/IC50, hURAT1” value was found to be 3.0. On OAT1, the “IC50, OAT1/IC50, hURAT1” value is 14.2.

As for `CCn1nc2ccc(F)cc2c1C(=O)c1cc(Br)c(O)c(Br)c1` [Example 9, (3,5-dibromo-4-hydroxyphenyl)(2-ethyl-5-fluoro-2H-indazol-3-yl) methanone], on OAT3, the “IC50, OAT3/IC50, hURAT1” value came out at 2.0. Moreover, the “IC50, OAT1/IC50, hURAT1” value at OAT1 worked out at 7.6.

With `CCc1nc2ncc(F)cn2c1C(=O)c1cc(Br)c(O)c(C#N)c1` [Example 14, 3-bromo-5-(2-ethyl-6-fluoroimidazo[1,2-a]pyrimidine-3-carbonyl)-2-hydroxybenzonitrile], at OAT3, the “IC50, OAT3/IC50, hURAT1” value stood at 3.6. Moreover, the “IC50, OAT1/IC50, hURAT1” value at OAT1 was found to be 3.5.

Take `CCn1nc2ccncc2c1C(=O)c1cc(Br)c(O)c(Br)c1` [Example 16, (3,5-dibromo-4-hydroxyphenyl)(2-ethyl-2H-pyrazolo[4,3-c]pyridin-3-yl)methanone]: the “IC50, OAT3/IC50, hURAT1” value at OAT3 is 3.1. The “IC50, OAT1/IC50, hURAT1” value at OAT1 is given as 17.4.

Consider `CCc1nc2ncc(F)cn2c1C(=O)c1cc(Br)c(O)c(C(F)(F)F)c1` [Example 18, (3-bromo-4-hydroxy-5-(trifluoromethyl)phenyl)(2-ethyl-6-fluoroimidazo[1,2-a]pyrimidin-3-yl)methanone], for which the “IC50, OAT3/IC50, hURAT1” value on OAT3 worked out at 16.2. Further, the “IC50, OAT1/IC50, hURAT1” value on OAT1 is recorded as 24.5.

`CCc1nc2ncccn2c1C(=O)c1cc(Br)c(O)c(Br)c1` [Example 20, 2,6-dibromo-4-([2-ethylimidazo[1,2-a]pyrimidin-3-yl]carbonyl) phenol]: at OAT3, the “IC50, OAT3/IC50, hURAT1” value stood at 8.7. At OAT1, the “IC50, OAT1/IC50, hURAT1” value was determined as 8.0.

On to `CCc1nc2cc(Cl)ncn2c1C(=O)c1cc(Br)c(O)c(Br)c1` [Example 21, (7-chloro-2-ethylimidazo[1,2-f]pyrimidin-3-yl)(3,5-dibromo-4-hydroxyphenyl)methanone], for which, on OAT3, the “IC50, OAT3/IC50, hURAT1” value amounted to 5.5. Besides, the “IC50, OAT1/IC50, hURAT1” value at OAT1 is 3.8.

On to `CCc1nc2ncccn2c1C(=O)c1cc(Br)c(O)c(C#N)c1` [Example 22, 3-bromo-5-(2-ethylimidazo[1,2-a]pyrimidine-3-carbonyl)-2-hydroxybenzonitrile], for which, on OAT3, the “IC50, OAT3/IC50, hURAT1” value is 1.4. For the same compound, the “IC50, OAT1/IC50, hURAT1” value on OAT1 came out at 2.0.

Take `CCc1nc2ncccn2c1C(=O)c1cc(Br)c(O)c(C(F)(F)F)c1` [Example 23, (3-bromo-4-hydroxy-5-(trifluoromethyl)phenyl)(2-ethylimidazo[1,2-a]pyrimidin-3-yl)methanone]: the “IC50, OAT3/IC50, hURAT1” value at OAT3 was 10.3. Further, the “IC50, OAT1/IC50, hURAT1” value on OAT1 worked out at 5.2.
